Data on 2 compounds can be found in patent publication US5013841A, “Oxo quinoline derivatives” (Dainippon Pharmaceutical Co., Ltd., priority 1987, dated 1991).

≈ marks a conversion by molar mass, not a printed value. Where two headings read alike, the source gives them in different places.

The nature of data set [1]: Acute oral toxicity in mice. The settings on record: mouse, in vivo, male mice (ddY), 7 days, Behrens-Kaerber method, read-out: median lethal dose (LD50). On the procedure:
A suspension containing each of compounds of this invention in various concentrations was orally given to male mice (ddY) at a dose of 0.1 ml per 10 g of body weight. The number of dead mice was counted after 7 days, and the value of median lethal dose (LD50, mg/kg) was calculated in accordance with the Behrens-Kaerber method.

Another data set has as its system M. pneumoniae Mac. Description: Antimycoplasma activity (twofold agar dilution method). It is filed as cell-based, Mycoplasma pneumoniae. To be noted: Mycoplasmoides pneumoniae, 168 h; M. pneumoniae Mac; Chanock agar, 37° C., 7 days, aerobic, calculated for free base; read-out: minimum inhibitory concentration (MIC). As to the method:
(§1) The figures in the table show minimum inhibitory concentrations (MIC), (μg/ml), calculated for free base.
(§2) Minimum inhibitory concentrations (MIC) were determined by the twofold agar dilution method. The media used were Chanock broth and agar PPLD broth and agar (Difco) supplemented with 20% horse serum and 10% fresh yeast extract). A 2-3 day broth culture of organisms was diluted with Chanock broth to a cell density of about 10^6 cells/ml. One loopful (about […]) of the organism dilution was spotted onto 10-ml drug containing Chanock agar in petri dishes using a multiple inoculator (Cathra International). The petri dishes were incubated at 37° C. for 7 and 2 days for Mycoplasma pneumoniae and other Mycoplasma spp. respectively. Incubation was performed anaerobically using the Gaspak anaerobic system (BBL) for M. buccale, M. fermentans, M. hominis, M. orale and M. salivarium, and aerobically for other Mycoplasma spp. The MIC was defined as the lowest compound concentration at which no growth of organism was detected.

Another data set has as its system M. fermentans PG-18. Described as above. To be noted: Mycoplasmopsis fermentans, PG18, 48 h; M. fermentans PG-18; Chanock agar, 37° C., 2 days, anaerobic, calculated for free base; read-out: minimum inhibitory concentration (MIC). It is filed as cell-based. On the procedure:
as §1, §2

Another data set has as its system M. arginini G-230. The data set is described as above. Type of data set: cell-based. The settings on record: 48 h, read-out: minimum inhibitory concentration (MIC). On the procedure: as §1, §2
Another data set has as its system A. laidlawii PG-8. The description is as above. It is filed as cell-based. The settings on record: Acholeplasma laidlawii, PG8, 48 h, read-out: minimum inhibitory concentration (MIC). As to the method:
as §1, §2

The test system of a further data set is M. salivarium PG-20. The data set is described as above. Type of data set: cell-based. To be noted: 48 h, read-out: minimum inhibitory concentration (MIC). On the procedure: as §1, §2
For the next data set, the system named is M. hyorhinis BST-7. The data set is described as above. It is filed as cell-based. To be noted: Mesomycoplasma hyorhinis, BST7, 48 h, read-out: minimum inhibitory concentration (MIC). As to the method:
as §1, §2

The test system of another data set is M. orale CH-19299. The data set is described as above. Type of data set: cell-based. To be noted: 48 h, read-out: minimum inhibitory concentration (MIC). On the procedure: as §1, §2
The subject of a further data set is M. hominis PG-21. The description is as above. It is filed as cell-based. The settings on record: Metamycoplasma hominis, PG21, 48 h; M. hominis PG-21; Chanock agar, 37° C., 2 days, anaerobic, calculated for free base; read-out: minimum inhibitory concentration (MIC). On the procedure:
as §1, §2

Another data set concerns M. buccale CH-20249. The description is as above. Type of data set: cell-based. To be noted: 48 h, read-out: minimum inhibitory concentration (MIC). On the procedure: as §1, §2
Data set [2] concerns C. Trachomatics G/ur 1317. Briefly: Antichlamydia activity (inclusion bodies in McCoy cells). It is filed as cell-based. To be noted: 36° C., 40-48 h, calculated for free base, read-out: minimum inhibitory concentration (MIC). On the procedure:
(§3) Minimum inhibitory concentrations (MIC) were determined as follows. McCoy cells were freshly cultured in Eagle's minimum essential medium (EMEM) (Flow) supplemented with 4% fetal bovine serum and 0.03% L-glutamine. The cells were trypsinized and suspended in the same culture medium at a cell concentration of 1-2×10^5 cells/ml. One ml of the cell suspension was pipetted into flat-bottomed plastic tubes (14 mm in diameter) containing a cover slip (12 mm in diameter). The tubes were incubated in 5% CO2 -air at 36° C. for 20 hours. One-half ml of a chlamydial suspension (ca. 1-4×10^3 inclusion body forming units) was added into each tube, which was then centrifuged at 1500×g for 60 minutes. The tubes were incubated for 1 hour at 36° C. The medium was changed with 1 ml of EMEM supplemented with 8% fetal bovine serum, 0.03% L-blutamine, 1μg/ml cycloheximide and 0.5% glucose, and containing drugs at various concentrations. After further incubation at 36° C. for 40-48 hours, the cells on the cover glasses were stained with the Giemsa's solution. […] The MIC was defined as the lowest drug concentration where there were no inclusion bodies in all the cells on the cover slip.

The subject of data set [3] is C. Trachomatics G/ur 1483. The description is as above. Type of data set: cell-based. To be noted: 36° C., 40-48 h, calculated for free base, read-out: minimum inhibitory concentration (MIC). As to the method:
as §3

For the next data set, the system named is C. Trachomatics G/ur 931. The description is as above. It is filed as cell-based. The settings on record: 36° C., 40-48 h, calculated for free base, read-out: minimum inhibitory concentration (MIC). On the procedure:
as §3

For data set [4], the system named is C. Trachomatics G/ur 1467. The description is as above. Type of data set: cell-based. To be noted: 36° C., 40-48 h, calculated for free base, read-out: minimum inhibitory concentration (MIC). As to the method: as §3
For a further data set, the system named is E. coli NIHJ JC-2. Description: In vitro antibacterial activity (twofold agar-dilution method). Type of data set: cell-based. To be noted: Escherichia coli, NIHJJC2; E. coli NIHJ JC-2; agar dilution, 20 h, 37° C., calculated for free base; read-out: minimum inhibitory concentration (MIC). As to the method:
(§4) The figures in the table show minimum inhibitory concentrations (MIC) (μg/ml), calculated for free base. The minimum inhibitory concentration was determined by the twofold agar-dilution method, which was recommended by Japan Society of Chemotherapy (Chemotherapy, 29(1), 76(1981)), using Muller-Hinton agar. One loopful of an overnight culture of test organisms in Mueller-Hinton broth was inoculated onto 10-ml drug-containing agar layers in petri dishes. Bacterial inocula contained approximately 10^6 colonyl-formingunits. Bacterial growth was observed after 20-hour incubation at 37° C. The MIC was defined as the lowest drug concentration which prevented visible bacterial growth.

The subject of the next data set is S. aureus Terajima. The data set is described as above. It is filed as cell-based. The settings on record: Staphylococcus aureus, 20 h, read-out: minimum inhibitory concentration (MIC). As to the method: as §4
For the next data set, the system named is P. Aeruginosa 12. The description is as above. Type of data set: cell-based. The settings on record: Pseudomonas aeruginosa, 20 h, read-out: minimum inhibitory concentration (MIC). On the procedure:
as §4

For the compound `Nc1c(F)c(N2CCNCC2)cc2c1c(=O)c(C(=O)O)cn2C1CC1` [Compound 1], the median lethal dose (LD50) (commonly the dose expected to kill half of the subjects tested) at 168 h in data set [1] was above 2000 mg/kg. Further, the MIC with M. pneumoniae Mac is 0.1 µg/mL (≈ 0.289 µM); with M. fermentans PG-18 it was 0.1 µg/mL (≈ 0.289 µM); in the data set on M. arginini G-230 (M. arginini G-230, Chanock agar, 37° C., 2 days, aerobic, calculated for free base) it was 0.1 µg/mL (≈ 0.289 µM); with A. laidlawii PG-8 (A. laidlawii PG-8, Chanock agar, 37° C., 2 days, aerobic, calculated for free base), 0.1 µg/mL (≈ 0.289 µM); in the data set with M. salivarium PG-20 (M. salivarium PG-20, Chanock agar, 37° C., 2 days, anaerobic, calculated for free base), 1.56 µg/mL (≈ 4.5 µM); in the data set on M. hyorhinis BST-7 (M. hyorhinis BST-7, Chanock agar, 37° C., 2 days, aerobic, calculated for free base) it was 0.1 µg/mL (≈ 0.289 µM). The MIC in the data set on M. orale CH-19299 (M. orale CH-19299, Chanock agar, 37° C., 2 days, anaerobic, calculated for free base) was 0.39 µg/mL (≈ 1.13 µM); in the data set with M. hominis PG-21, 0.39 µg/mL (≈ 1.13 µM); with M. buccale CH-20249 (M. buccale CH-20249, Chanock agar, 37° C., 2 days, anaerobic, calculated for free base) it was 0.1 µg/mL (≈ 0.289 µM); in data set [2], 0.25 µg/mL (≈ 0.722 µM); in [3], 0.25 µg/mL (≈ 0.722 µM); in the data set on C. Trachomatics G/ur 931, 0.25 µg/mL (≈ 0.722 µM). In addition, the MIC in [4] was 0.25 µg/mL (≈ 0.722 µM); with E. coli NIHJ JC-2 it was 0.0063 µg/mL (≈ 0.0182 µM); in the data set with S. aureus Terajima (S. aureus Terajima, agar dilution, 37° C., calculated for free base), 0.05 µg/mL (≈ 0.144 µM); with P. Aeruginosa 12 (P. Aeruginosa 12, agar dilution, 37° C., calculated for free base), 0.05 µg/mL (≈ 0.144 µM).
As to `C[C@@H]1CN(c2cc3c(c(N)c2F)c(=O)c(C(=O)O)cn3C2CC2)C[C@H](C)N1` [Compound 2, 5-amino-1-cyclopropyl-6-fluoro-7-(cis-3,5-dimethyl-1-piperazinyl)-1,4-dihydro-4-oxoquinoline-3-carboxylic acid], the 50% lethal dose (LD50) at 168 h in data set [1] is above 2000 mg/kg. In addition, the MIC in the data set on M. pneumoniae Mac is 0.1 µg/mL (≈ 0.267 µM); in the data set on M. fermentans PG-18 it was 0.025 µg/mL (≈ 0.0668 µM); in the data set with M. arginini G-230 it was 0.05 µg/mL (≈ 0.134 µM); in the data set with A. laidlawii PG-8, 0.05 µg/mL (≈ 0.134 µM); in the data set with M. salivarium PG-20 it was 0.39 µg/mL (≈ 1.04 µM); in the data set on M. hyorhinis BST-7, 0.05 µg/mL (≈ 0.134 µM). The MIC is 0.39 µg/mL (≈ 1.04 µM) with M. orale CH-19299; 0.1 µg/mL (≈ 0.267 µM) with M. hominis PG-21; 0.05 µg/mL (≈ 0.134 µM) in the data set with M. buccale CH-20249; 0.063 µg/mL (≈ 0.168 µM) in [2]; 0.063 µg/mL (≈ 0.168 µM) in data set [3]; 0.063 µg/mL (≈ 0.168 µM) in the data set with C. Trachomatics G/ur 931. For the same compound, the MIC in data set [4] was 0.063 µg/mL (≈ 0.168 µM); with E. coli NIHJ JC-2, 0.025 µg/mL (≈ 0.0668 µM); in the data set with S. aureus Terajima, 0.05 µg/mL (≈ 0.134 µM); in the data set on P. Aeruginosa 12 it was 0.39 µg/mL (≈ 1.04 µM).
